# Assay results as given in patent US7671057B2, “Therapeutic agent for type II diabetes comprising protease-inhibiting compound” (Ono Pharmaceutical Co., Ltd., priority 2004, dated 2010).
# Marks after values point to notes of the source that are not given here.
# Experiments:
# Assay type in all cases: in vivo, mouse
# KK-A^y/Ta Jcl mice [1] = test: Plasma TC, TG, blood-sugar, IRI and IRG levels 3 hours subsequent to the glucose-loading test (Example 1); conditions: 3 hours subsequent to glucose-loading test
# Description: (§1) As from Day 14 afterwards, the animals after being fasted for 18 hours or more were loaded orally with a glucose solution (2 g/kg, 10 mL/kg), whereby the blood-sugar levels were measured before, and 120 min. after, the said glucose loading. Each of the compounds was given orally to the animals 3 hours prior to the glucose loading, and the whole blood was drawn from each of the animals under anesthesia. Each of the said blood samples was centrifuged to yield a blood plasma, and the resultant blood plasmas were all preserved under freezing in a ultra-low-temperature freezer for subsequent use in the below-described measurements.
# (§2) The blood-sugar level, total cholesterol level (hereinafter referred to briefly as “TC level”) and triglyceride level (hereinafter referred to briefly as “TG level”) were detected individually in accordance with the hexokinase/G-6-PDH method, enzyme method and GPO/HDAOS method, and measured with use of Biochemical Auto-Analyzer (Model AU 400, manufactured by Olympus Co. of Japan). The plasma insulin level (hereinafter referred to briefly as “IRI level”) and the plasma glucagon level (hereinafter referred to briefly as “IRG level”) were detected individually with the ELISA method (Lebisinsulin Mouse Insulin Kit, produced by K.K. Shibayagi of Japan) and the ELISA method (YK090 Glucagon EIA Kit, produced by K.K. Yanaihara Kenkyuu-sho of Japan), followed by measurement with use of a plate reader (Immuno Mini NJ-2300, Nalge Nunc International K.K. of Japan).
# (§3) The blood-sugar, TC, TG, IRI and IRG levels and the body weight were expressed as a mean value±standard deviation as calculated for each group of animals. With reference to the significance test between the group treated through administration of the medium and each group treated through administration of the compound, the F test was effected to analyze the data and then, the Student's t-test and Aspin-Welch's t-test were used in cases where the variance between the two groups was determined to be equal and unequal, respectively. Referring to the significance level, less than 5% (p<0.05) was considered significant, and the significance level was expressed as divided into the two events of less than 1% (**: p<0.01) and less than 5% (*: p<0.05).
# KK-A^y/Ta Jcl mice [2] = test: Blood-sugar level after single and repeated oral administration (Example 1)
# Description: On the day of initiation of administration (Day 1 of Administration), the obese/spontaneously type II diabetic mice; KK-A^y/Ta Jcl mice (male, 6-weeks aged, n=8) were treated through individual oral administration of the Test Compound 1 (ethyl N-allyl-N—[(E)-2-methyl-3-[4-(4-amidinophenoxycarbonyl)-phenyl]propenoyl]aminoacetate/methanesulfonate) of the present invention and the Control Compound 1 (5-{4-[2-(5-ethylpyridine-2-yl)ethoxy]benzyl}-1,3-thiazolidine-2,4-dione; pioglitazone) at the daily dose of 30 mg/kg, or the control medium (0.5% CMC), and blood was drawn from each animal through the orbital venous plexus 6 hours after administration. The blood-sugar levels were measured in accordance with the enzyme electrode method by use of Antosense II (manufactured by Daikin Kogyo KK of Japan). The said test was carried out while the animals were allowed free access to food and water.
# Following the above-described single administration, the repeated, once-a-day forced oral administration of each compound was performed at the same daily dose for the total period of 14 consecutive days. On Days 3 and 11, blood was drawn in the same manner as described above 6 hours after administration of each compound, followed by measurement of the blood-sugar level.
# as §3
# KK-A^y/Ta Jcl mice [3] = test: Glucose loading test after repeated administration for 14 days (Example 1)
# Description: as §1, §2, §3
# [4] = Body weight after repeated administration for 14 days (Example 1); conditions: after repeated administration for 14 consecutive days
# Description: Following the above-described single administration, the repeated, once-a-day forced oral administration of each compound was performed at the same daily dose for the total period of 14 consecutive days. […] The blood-sugar, TC, TG, IRI and IRG levels and the body weight were expressed as a mean value±standard deviation as calculated for each group of animals. With reference to the significance test between the group treated through administration of the medium and each group treated through administration of the compound, the F test was effected to analyze the data and then, the Student's t-test and Aspin-Welch's t-test were used in cases where the variance between the two groups was determined to be equal and unequal, respectively.
# [5] = repeated once-a-day oral 30 mg/kg, 6 hours after administration
compound,measurement,setting,value
"C=CCN(CC(=O)OCC)C(=O)/C(C)=C/c1ccc(C(=O)Oc2ccc(C(=N)N)cc2)cc1 [Test Compound 1, ethyl N-allyl-N—[(E)-2-methyl-3-[4-(4-amidinophenoxycarbonyl)-phenyl]propenoyl]aminoacetate/methanesulfonate]",Effect on IRG level (in words),KK-A^y/Ta Jcl mice [1]; after 14 days,a decrease in the IRG level
same,Effect on IRI level (in words),KK-A^y/Ta Jcl mice [1]; after 14 days,an increase in the IRI level
same,Effect on TC level (in words),KK-A^y/Ta Jcl mice [1]; after 14 days,decreases
same,Effect on TG level (in words),KK-A^y/Ta Jcl mice [1]; after 14 days,decreases
same,Effect on blood-sugar level (in words),KK-A^y/Ta Jcl mice [1]; after 14 days,a decrease in the blood-sugar level
same,Blood-sugar level,KK-A^y/Ta Jcl mice [1]; after 14 days 30 mg/kg p.o.,251.0 ± 7.2 mg/dL
same,IRG (plasma glucagon level),KK-A^y/Ta Jcl mice [1]; after 14 days 30 mg/kg p.o.,411 ± 31.5 pg/mL
same,IRI (plasma insulin level),KK-A^y/Ta Jcl mice [1]; after 14 days 30 mg/kg p.o.,1.74 ± 0.17 ng/mL
same,TC,KK-A^y/Ta Jcl mice [1]; after 14 days 30 mg/kg p.o.,99.2 ± 3.6 mg/dL
same,TG,KK-A^y/Ta Jcl mice [1]; after 14 days 30 mg/kg p.o.,81.4 ± 7.1 mg/dL
same,Blood-sugar level before administration,"KK-A^y/Ta Jcl mice [2]; Day 1, before single oral administration of 30 mg/kg (baseline)",443.5 ± 19.6 mg/dL
same,Blood-sugar lowering action (in words),"KK-A^y/Ta Jcl mice [2]; repeated administration 30 mg/kg, Days 3 and 11",blood-sugar lowering action
same,Blood-sugar level Day 3,KK-A^y/Ta Jcl mice [2]; [5],205.5 ± 7.0* mg/dL
same,Blood-sugar level Day 11,KK-A^y/Ta Jcl mice [2]; [5],297.4 ± 18.4 mg/dL
same,Blood-sugar lowering action vs control medium group (in words),"KK-A^y/Ta Jcl mice [2]; single administration 30 mg/kg, 6 hours after administration",significant blood-sugar lowering action
same,Blood-sugar level 6 hrs. after administration,"KK-A^y/Ta Jcl mice [2]; single oral administration, 30 mg/kg",263.5 ± 11.0* mg/dL
same,Blood-sugar level before glucose loading,"KK-A^y/Ta Jcl mice [3]; after 14 days 30 mg/kg p.o., fasted, compound 3 hours prior to loading",155.0 ± 5.2 mg/dL
same,Blood-sugar level 120 Min. after glucose loading,"KK-A^y/Ta Jcl mice [3]; after 14 days 30 mg/kg p.o., glucose 2 g/kg orally",235.0 ± 5.9* mg/dL
same,Blood-sugar lowering action in the glucose loading test vs medium control group (in words),KK-A^y/Ta Jcl mice [3]; after repeated administration for 14 consecutive days,significant blood-sugar lowering action
same,Effect on impaired glucose tolerance (in words),"KK-A^y/Ta Jcl mice [3]; repeated forced oral administration, spontaneously diabetic mice",ameliorated impaired glucose tolerance
same,Effect on mouse body-weight vs control medium group (in words),[4],did not show any changes in the mouse body-weight
same,Body weight,[4]; 30 mg/kg p.o.,29.3 ± 0.3 g
